The record followed here is patent publication US8563542B2 (Cyclacel Limited, priority 2007, dated 2013).

The IC50 is the concentration at which inhibition is half-maximal.

In the first experiment the target is PLK1 (Homo sapiens, UniProt P53350). The experiment in a line: PLK1 protein kinase assay (CDC25C phosphorylation, [γ-32P]-ATP). It is filed as biochemical. To be noted: Table 1; read-out: PLK1 IC50.
Chain of PLK1 (P53350 whole entry): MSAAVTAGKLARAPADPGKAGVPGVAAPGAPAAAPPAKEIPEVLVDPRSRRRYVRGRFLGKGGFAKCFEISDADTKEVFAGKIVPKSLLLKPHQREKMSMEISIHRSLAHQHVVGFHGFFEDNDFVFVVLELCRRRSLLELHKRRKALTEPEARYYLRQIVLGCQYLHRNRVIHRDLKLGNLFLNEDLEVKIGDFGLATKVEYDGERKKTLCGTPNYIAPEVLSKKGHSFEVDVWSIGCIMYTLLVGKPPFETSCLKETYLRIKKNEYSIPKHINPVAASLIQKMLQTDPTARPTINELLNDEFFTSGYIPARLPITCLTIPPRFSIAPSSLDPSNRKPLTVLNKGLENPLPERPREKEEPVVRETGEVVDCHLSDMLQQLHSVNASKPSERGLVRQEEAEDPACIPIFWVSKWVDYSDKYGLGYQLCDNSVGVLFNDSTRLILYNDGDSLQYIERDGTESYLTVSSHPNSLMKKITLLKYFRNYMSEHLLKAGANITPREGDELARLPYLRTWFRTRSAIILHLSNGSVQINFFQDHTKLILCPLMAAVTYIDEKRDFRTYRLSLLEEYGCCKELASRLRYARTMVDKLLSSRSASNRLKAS
As to `COc1cc(C(=O)NC2CCN(C)CC2)ccc1Nc1ncc2c(n1)N(C1CCCC1)C(C)CC(=O)N2` (stereo not drawn) [compound 34, 4-(9-Cyclopentyl-8-methyl-6-oxo-6,7,8,9-tetrahydro-5H-pyrimido[4,5-b][1,4]diazepin-2-ylamino)-3-methoxy-N-(1-methyl-piperidin-4-yl)-benzamide], the IC50 was below 1000 nM.

Still in this experiment, the particulars now being: Table 2, PLK1 IC50; class symbols; read-out: PLK1 IC50.
As for `COc1cc(C(=O)NN2CCN(C)CC2)ccc1Nc1ncc2c(n1)N(C1CCCC1)CC(C)(C)C(=O)N2C` [Compound 195, 4-(9-Cyclopentyl-5,7,7-trimethyl-6-oxo-6,7,8,9-tetrahydro-5H-pyrimido[4,5-b][1,4]diazepin-2-ylamino)-3-methoxy-N-(4-methyl-piperazin-1-yl)-benzamide], the IC50 is below 100 nM.

On to `COc1cc(C(=O)NC2CC(C)(C)N(C)C(C)(C)C2)ccc1Nc1ncc2c(n1)N(C1CCCC1)CC1(CC1)C(=O)N2C` [compound 255, 4-(9-Cyclopentyl-5-methyl-6-oxo-6,7,8,9-tetrahydro-5H-spiro[pyrimido[4,5-b][1,4]diazepin-3,1′-cyclopropane]-2-ylamino)-3-methoxy-N-(1,2,2,6,6-pentamethyl-piperidin-4-yl)-benzamide], for which the half-inhibitory concentration (IC50) is below 100 nM.

Turning to `COc1cc(C(=O)NCCCN(C)C)ccc1Nc1ncc2c(n1)N(CC1CC1)CCC(=O)N2C` [compound 247, 4-(9-Cyclopropylmethyl-5-methyl-6-oxo-6,7,8,9-tetrahydro-5H-pyrimido[4,5-b][1,4]diazepin-2-ylamino)-N-(3-dimethylamino-propyl)-3-methoxy-benzamide], the 50% inhibitory concentration (IC50) was below 1000 nM.

With `Cc1c(Nc2ncc3c(n2)N(C2CCCC2)CCC(=O)N3C)cccc1C(=O)NCCO` [compound 142, 3-(9-Cyclopentyl-5-methyl-6-oxo-6,7,8,9-tetrahydro-5H-pyrimido[4,5-b][1,4]diazepin-2-ylamino)-N-(2-hydroxy-ethyl)-2-methyl-benzamide], the IC50 is below 10000 nM.

Consider `CCN(CC)CCNC(=O)c1ccc(Nc2ncc3c(n2)N(CC(C)C)CCC(=O)N3C)c(OC)c1` [compound 307, N-(2-Diethylamino-ethyl)-4-(9-isobutyl-5-methyl-6-oxo-6,7,8,9-tetrahydro-5H-pyrimido[4,5-b][1,4]diazepin-2-ylamino)-3-methoxy-benzamide], for which the IC50 is below 1000 nM.

For `CN1CCC(NC(=O)c2ccc(Nc3ncc4c(n3)N(C3CCCC3)CC3(CC3)C(=O)N4C)c(OC(F)(F)F)c2)CC1` [compound 284, 4-(9-Cyclopentyl-5-methyl-6-oxo-6,7,8,9-tetrahydro-5H-spiro[pyrimido[4,5-b][1,4]diazepin-3,1′-cyclopropane]-2-ylamino)-3-trifluoromethoxy-N-(1-methyl-piperidin-4-yl)-benzamide], the 50% inhibitory concentration (IC50) is below 100 nM.

Take `COc1cc(C(=O)NCC2CCN(C)CC2)ccc1Nc1ncc2c(n1)N(C1CCCC1)CC(C)(C)C(=O)N2C` [compound 196]: the IC50 was below 100 nM.

Take `CCN(CC)CCNC(=O)c1ccc(Nc2ncc3c(n2)N(c2ccc(OC)cc2)CCC(=O)N3C)c(OC)c1` [compound 319, N-(2-Diethylamino-ethyl)-3-methoxy-4-[9-(4-methoxy-phenyl)-5-methyl-6-oxo-6,7,8,9-tetrahydro-5H-pyrimido[4,5-b][1,4]diazepin-2-ylamino]-benzamide]: the IC50 was below 10000 nM.

`COc1ccc(C(=O)NC2CCN(C)CC2)cc1Nc1ncc2c(n1)N(C1CCCC1)CCC(=O)N2C` [compound 143, 3-(9-Cyclopentyl-5-methyl-6-oxo-6,7,8,9-tetrahydro-5H-pyrimido[4,5-b][1,4]diazepin-2-ylamino)-4-methoxy-N-(1-methyl-piperidin-4-yl)-benzamide]: the concentration for half-maximal inhibition (IC50) is below 1000 nM.

Regarding `COc1cc(C(=O)NCC2CCN(C)CC2)ccc1Nc1ncc2c(n1)N(C1CCCC1)CC1(CC1)C(=O)N2C` [compound 253, 4-(9-Cyclopentyl-5-methyl-6-oxo-6,7,8,9-tetrahydro-5H-pyrimido[4,5-b][1,4]diazepin-3,1′-cyclopropane-2-ylamino)-3-methoxy-N-(1-methyl-piperidin-4-ylmethyl)-benzamide], the IC50 was below 100 nM.

With `CN1C(=O)CCN(C2CCCC2)c2nc(NCc3ccc4c(c3)OCCO4)ncc21` [compound 127, 9-Cyclopentyl-2-[(2,3-dihydro-benzo[1,4]dioxin-6-ylmethyl)-amino]-5-methyl-5,7,8,9-tetrahydro-pyrimido[4,5-b][1,4]diazepin-6-one], the IC50 was below 10000 nM.

`COc1cc(C(=O)NCC2CCCCN2C)ccc1Nc1ncc2c(n1)N(C1CCCC1)CCC(=O)N2C` (stereo not drawn) [compound 202, 4-(9-Cyclopentyl-5-methyl-6-oxo-6,7,8,9-tetrahydro-5H-pyrimido[4,5-b][1,4]diazepin-2-ylamino)-3-methoxy-N-(1-methyl-piperidin-2-ylmethyl)-benzamide]: the IC50 was below 100 nM.

On to `COc1cc(C(=O)NC2CCN(C)CC2)ccc1Nc1ncc2c(n1)N(c1ccccc1F)CCC(=O)N2C` [compound 52, 4-[9-(2-Fluoro-phenyl)-5-methyl-6-oxo-6,7,8,9-tetrahydro-5H-pyrimido[4,5-b][1,4]diazepin-2-ylamino]-3-methoxy-N-(1-methyl-piperidin-4-yl)-benzamide], for which the half-maximal inhibitory concentration (IC50) was below 1000 nM.

On to `COc1ccc(C(=O)NC2CCN(Cc3ccccc3)CC2)cc1Nc1ncc2c(n1)N(C1CCCC1)CCC(=O)N2C` [compound 271, N-(1-Benzyl-piperidin-4-yl)-3-(9-cyclopentyl-5-methyl-6-oxo-6,7,8,9-tetrahydro-5H-pyrimido[4,5-b][1,4]diazepin-2-ylamino)-4-methoxy-benzamide], for which the IC50 was below 1000 nM.

For the compound `COc1cc(C(=O)NC(C)(C)CN2CCCCC2)ccc1Nc1ncc2c(n1)N(C1CCCC1)CCC(=O)N2C` [compound 156, 4-(9-Cyclopentyl-5-methyl-6-oxo-6,7,8,9-tetrahydro-5H-pyrimido[4,5-b][1,4]diazepin-2-ylamino)-N-(1,1-dimethyl-2-piperidin-1-yl-ethyl)-3-methoxy-benzamide], the IC50 is below 100 nM.

Turning to `COc1ccc(N2CCC(=O)N(C)c3cnc(Nc4ccc(C(=O)NC5CCCN(C)C5)cc4OC)nc32)cc1` (stereo not drawn) [compound 315], the concentration for half-maximal inhibition (IC50) is below 1000 nM.

With `COc1cc(C(=O)NC2CN3CCC2CC3)ccc1Nc1ncc2c(n1)N(CC(C)C)CCC(=O)N2C` (stereo not drawn) [compound 305, N-(1-Aza-bicyclo[2.2.2]oct-3-yl)-4-(9-isobutyl-5-methyl-6-oxo-6,7,8,9-tetrahydro-5H-pyrimido[4,5-b][1,4]diazepin-2-ylamino)-3-methoxy-benzamide], the IC50 was below 1000 nM.

Still in this experiment, the particulars now being: Table 3; read-out: PLK1 IC50.
Turning to `COc1cc(C(=O)NN2CCN(C)CC2)ccc1Nc1ncc2c(n1)N(C1CCCC1)CC(C)(C)C(=O)N2C` [Compound 195, 4-(9-Cyclopentyl-5,7,7-trimethyl-6-oxo-6,7,8,9-tetrahydro-5H-pyrimido[4,5-b][1,4]diazepin-2-ylamino)-3-methoxy-N-(4-methyl-piperazin-1-yl)-benzamide], the IC50 was below 100 nM.

Consider `CN1CCN(NC(=O)c2ccc(Nc3ncc4c(n3)N(C3CCCC3)CC3(CCC3)C(=O)N4C)c(F)c2)CC1` [Compound 373, 4-(9′-cyclopentyl-5′-methyl-6′-oxo-5′,6′,8′,9′-tetrahydrospiro[cyclobutane-1,7′-pyrimido[4,5-b][1,4]diazepine]-2′-ylamino)-3-fluoro-N-(4-methylpiperazin-1-yl)benzamide], for which the half-inhibitory concentration (IC50) was below 100 nM.

Consider `COc1cc(C(=O)N[C@H]2CC[C@@H](N3CCN(Cc4ccccc4)CC3)CC2)ccc1Nc1ncc2c(n1)N(C1CCCC1)CC1(CC1)C(=O)N2C` [Compound 387, N-((cis)-4-(4-benzylpiperazin-1-yl)cyclohexyl)-4-(9′-cyclopentyl-5′-methyl-6′-oxo-5′,6′,8′,9′-tetrahydrospiro[cyclopropane-1,7′-pyrimido[4,5-b][1,4]diazepine]-2′-ylamino)-3-methoxybenzamide], for which the half-inhibitory concentration (IC50) lay within 100 to 1000 nM.
